Reference: US20060141044A1, “Pharmaceutical compositions based on diclofenac derivate” (priority 2003, published 2006)

Assay: Aqueous solubility / Biopharmaceutical Classification System classification
Format: physicochemical
From the text: 2-[2-(nitrooxy)ethoxy]ethyl {2-[(2,6-dichlorophenyl)amino]phenyl}acetate is a lipophilic drug with poor aqueous solubility and a low melting point. Said drug can be classified into class 2 according to the Biopharmaceutical Classification System proposed by Amidon et al. (Pharm. Res. 12 (1995) pp. 413420). Compounds of this class are characterised by their low aqueous solubility but reasonably well permeability. A biopharmaceutical problem with these drugs is that their absorption from the gastro-intestinal tract (GIT) may be dissolution rate limited, resulting in poor bioavailibility upon oral administration. One object of the invention is to provide an oral drug delivery composition with satisfactory bioavailability.

O=C(Cc1ccccc1Nc1c(Cl)cccc1Cl)OCCOCCO[N+](=O)[O-] [2-[2-(nitrooxy)ethoxy]ethyl {2-[(2,6-dichlorophenyl)amino]phenyl}acetate]
aqueous solubility (qualitative statement): poor | class according to the Biopharmaceutical Classification System (system proposed by Amidon et al.): class 2
